# Measurements: PubChem BioAssay (NCI)
#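 Dose response: 5 concentrations. Exposure: 48 h. Format: 96-well plates. Endpoint: linear interpolation; highest concentration if not reached. The concentration for 50% growth inhibition is given as GI50. TGI: total growth inhibition.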
# Experiments:
# Assay in all cases: growth of human tumour cells (NCI), 48 h
# [1] = tested on: M14 melanoma
# [2] = tested on: TK-10 renal
# [3] = tested on: SK-MEL-2 melanoma
# [4] = tested on: SR leukemia
# [5] = tested on: SK-OV-3 ovarian
# [6] = tested on: HOP-92 NSCLC
# [7] = tested on: MDA-MB-435
# [8] = tested on: SNB-75 CNS
# [9] = tested on: CAKI-1 renal
# [10] = tested on: UACC-62 melanoma
# [11] = tested on: CCRF-CEM leukemia
# [12] = tested on: HT29 colon
# [13] = tested on: K-562 leukemia
# [14] = tested on: MDA-MB-231 breast
# [15] = tested on: OVCAR-4 ovarian
# [16] = tested on: COLO 205 colon
# [17] = tested on: 786-0 renal
# [18] = tested on: HCC-2998 colon
# [19] = tested on: HL-60(TB) leukemia
# [20] = tested on: HOP-62 NSCLC
# [21] = tested on: MALME-3M melanoma
# [22] = tested on: NCI/ADR-RES ovarian
# [23] = tested on: SW-620 colon
# [24] = tested on: OVCAR-5 ovarian
# [25] = tested on: KM12 colon
# [26] = tested on: BT-549 breast
# [27] = tested on: IGROV1 ovarian
# [28] = tested on: T-47D breast
# [29] = tested on: HS 578T breast
# [30] = tested on: NCI-H522 lung
# [31] = tested on: NCI-H226 lung
# [32] = tested on: UO-31 renal
# [33] = tested on: HCT-116 colon
# [34] = tested on: NCI-H23 lung
# [35] = tested on: PC-3 prostate
# [36] = tested on: U251 CNS
# [37] = tested on: OVCAR-3 ovarian
# [38] = tested on: RXF 393 renal
# [39] = tested on: ACHN renal
# [40] = tested on: UACC-257 melanoma
# [41] = tested on: A549 NSCLC
# [42] = tested on: SNB-19 CNS
# [43] = tested on: SK-MEL-5 melanoma
# [44] = tested on: MCF7 breast
# [45] = tested on: EKVX NSCLC
# [46] = tested on: SN12C renal
# [47] = tested on: RPMI-8226 leukemia
# [48] = tested on: A498 renal
# [49] = tested on: SF-295 CNS
# [50] = tested on: OVCAR-8 ovarian
# [51] = tested on: DU-145 prostate
# [52] = tested on: HCT-15 colon
# [53] = tested on: SF-268 CNS
# [54] = tested on: SK-MEL-28 melanoma
# [55] = tested on: LOX IMVI melanoma
# [56] = tested on: NCI-H460 lung
# [57] = tested on: SF-539 CNS
smiles,measurement,setting,value
COc1cc(OC)cc(Oc2nc3cc(N)cc(N)c3nc2-c2ccccc2)c1,GI50,[1],1.6 µM
same,TGI,[1],7.76 µM
same,TGI,[2],8.44 µM
same,GI50,[3],2.29 µM
same,TGI,[3],10.2 µM
same,GI50,[4],1.85 µM
same,TGI,[4],28.9 µM
same,GI50,[5],3.49 µM
same,TGI,[5],16.3 µM
same,GI50,[6],1.36 µM
same,TGI,[6],8.9 µM
same,GI50,[7],0.392 µM
same,TGI,[7],1.83 µM
same,GI50,[8],0.127 µM
same,TGI,[8],2.67 µM
same,TGI,[9],24.1 µM
same,GI50,[10],4.04 µM
same,TGI,[10],18 µM
same,GI50,[11],1.97 µM
same,TGI,[11],8.67 µM
same,GI50,[12],4.37 µM
same,TGI,[12],17.8 µM
same,GI50,[13],3.77 µM
same,TGI,[13],32.4 µM
same,GI50,[14],4.02 µM
same,TGI,[14],21.8 µM
same,GI50,[15],2.89 µM
same,TGI,[15],16.2 µM
same,GI50,[16],10.6 µM
same,TGI,[16],22.4 µM
same,TGI,[17],11.4 µM
same,GI50,[18],2.52 µM
same,TGI,[18],13.7 µM
same,GI50,[19],3.07 µM
same,TGI,[19],25.9 µM
same,GI50,[20],2.14 µM
same,TGI,[20],12.8 µM
same,GI50,[21],0.426 µM
same,TGI,[21],5.09 µM
same,GI50,[22],1.13 µM
same,TGI,[22],3.85 µM
same,GI50,[23],2.26 µM
same,TGI,[23],10.2 µM
same,GI50,[24],3.24 µM
same,TGI,[24],16.4 µM
same,GI50,[25],1.03 µM
same,TGI,[25],6.07 µM
same,GI50,[26],1.49 µM
same,TGI,[26],6.92 µM
same,GI50,[27],2.62 µM
same,TGI,[27],12.3 µM
same,GI50,[28],2.37 µM
same,TGI,[28],9.13 µM
same,GI50,[29],1.32 µM
same,TGI,[29],4.19 µM
same,GI50,[30],0.891 µM
same,TGI,[30],4.31 µM
same,GI50,[31],6.55 µM
same,TGI,[31],43 µM
same,TGI,[32],15.3 µM
same,GI50,[33],2.36 µM
same,TGI,[33],10.1 µM
same,GI50,[34],1.69 µM
same,TGI,[34],12.7 µM
same,TGI,[35],17.4 µM
same,GI50,[36],2.6 µM
same,TGI,[36],10.8 µM
same,GI50,[37],2.22 µM
same,TGI,[37],8.65 µM
same,TGI,[38],4.41 µM
same,TGI,[39],17.9 µM
same,GI50,[40],2.19 µM
same,TGI,[40],12.3 µM
same,GI50,[41],2.88 µM
same,TGI,[41],13.2 µM
same,GI50,[42],2.49 µM
same,TGI,[42],12.5 µM
same,GI50,[43],1.89 µM
same,TGI,[43],6.47 µM
same,GI50,[44],1.69 µM
same,TGI,[44],4.53 µM
same,GI50,[45],3.77 µM
same,TGI,[45],19.3 µM
same,TGI,[46],22.3 µM
same,TGI,[47],8.42 µM
same,TGI,[48],14.4 µM
same,GI50,[49],2.21 µM
same,TGI,[49],8.49 µM
same,GI50,[50],2.9 µM
same,TGI,[50],16.3 µM
same,TGI,[51],25.1 µM
same,GI50,[52],2.04 µM
same,TGI,[52],12.4 µM
same,GI50,[53],1.75 µM
same,TGI,[53],7.13 µM
same,GI50,[54],3.18 µM
same,TGI,[54],15.5 µM
same,GI50,[55],2.95 µM
same,TGI,[55],13 µM
same,GI50,[56],2.92 µM
same,TGI,[56],12.5 µM
O=C1/C(=C/c2cccc(O)c2)COc2ccccc21,TGI,[1],13 µM
same,TGI,[2],31.2 µM
same,TGI,[3],34.6 µM
same,TGI,[4],> 100 µM
same,TGI,[5],46.3 µM
same,TGI,[6],> 55.6 µM
same,TGI,[7],17.2 µM
same,TGI,[8],34.5 µM
same,TGI,[9],11.9 µM
same,TGI,[10],9.81 µM
same,TGI,[11],> 100 µM
same,TGI,[12],11.4 µM
same,TGI,[13],> 33.2 µM
same,TGI,[14],21.4 µM
same,TGI,[15],21.8 µM
same,TGI,[16],31.6 µM
same,TGI,[17],14.5 µM
same,TGI,[18],1.48 µM
same,TGI,[19],63.8 µM
same,TGI,[20],28.4 µM
same,TGI,[21],26.3 µM
same,TGI,[22],5.25 µM
same,TGI,[23],6.79 µM
same,TGI,[24],26.6 µM
same,TGI,[25],7.09 µM
same,TGI,[26],49.5 µM
same,TGI,[27],23.1 µM
same,TGI,[28],21.1 µM
same,TGI,[29],43.6 µM
same,TGI,[30],5.82 µM
same,TGI,[57],25.8 µM
same,TGI,[31],32.4 µM
same,TGI,[32],24.8 µM
same,TGI,[33],3.32 µM
same,TGI,[34],18.1 µM
same,TGI,[35],> 53.8 µM
same,TGI,[36],3.8 µM
same,TGI,[37],4.85 µM
same,TGI,[38],29 µM
same,TGI,[39],3.89 µM
same,TGI,[40],7.29 µM
same,TGI,[41],47.2 µM
same,TGI,[42],21.8 µM
same,TGI,[43],22.8 µM
same,TGI,[44],> 43.6 µM
same,TGI,[45],34 µM
same,TGI,[46],19.8 µM
same,TGI,[48],34.7 µM
same,TGI,[49],33.4 µM
same,TGI,[50],24.4 µM
same,TGI,[51],28.1 µM
same,TGI,[52],3.26 µM
same,TGI,[53],40.8 µM
same,TGI,[54],11.9 µM
same,TGI,[55],3.92 µM
same,TGI,[56],54.6 µM
